Measurements taken from patent publication US6294542A, “Pyrimidinone compounds, pharmaceutical compositions containing the compounds and the process for preparing the same” (Boryung Pharmaceutical Co. Ltd., priority 1998, dated 2001).

Tests used:
[1] = test system: Angiotensin II-induced pressor response; assay: In vivo Angiotensin II antagonism in conscious normotensive rats; details: Rattus norvegicus, po; P.O.; conscious normotensive male SD rats; Angiotensin II 0.1 μg/kg; read-out: ID50 (dose of test compound necessary to produce 50% inhibition of Angiotensin II-induced pressor response)
Protocol: The antagonistic activity of the compound (I) against the angiotensin II, which is prepared by the process according to a preferred embodiment of the invention, was evaluated with relation to rats.
In vivo Angiotensin II antagonism in conscious normotensive rats.
Male SD rats (Charles River Japan, 9 weeks, 300-350 g) were anesthetized with pentobarbital at 50 mg/kg i.p. Both the left femoral artery and the right femoral vein were cannulated. A heparin-filled catheter (50U/ml) was tunneled subcutaneously (s.c.) to the dorsal side of the neck and exteriorized.
Rats were permitted to recover overnight from anesthesia and allowed free access to water, but food was withheld.
The next day, the femoral artery catheter was connected to a pressure transducer (COBE 041-500-508, USA) coupled to a polygraph (GRASS Model 7, USA) to monitor arterial blood pressure. After an appropriate equilibration period, Angiotensin II (0.1 μg/kg) was injected in the femoral vein three times during the control period.
Test compounds were then administered orally (p.o.) at a constant volume of 2 ml/kg.
Angiotensin II challenges were repeated at set times thereafter.
ID50 values, the dose of test compound necessary to produce 50% inhibition of Angiotensin II-induced pressor response, were calculated from peak inhibition percentage with several doses of test compound.

[2] = Acute Toxicity Test (oral, mice); assay type: in vivo; details: for LD50: mouse, in vivo, po
Protocol: Respective 5 mice of ICR system, which was distributed from Korean Laboratory Animal Center, were bred in a polycarbonate breeding box at a breeding environment of 23±1° C. of temperature, 55±5% of humidity, 10-15 times/hr of evacuation, 12 hr cycle of fluorescent light luminance, and 150-300 Lux of illumination.
After observing the mice for one week of acclimation breeding period, only normal mice were selected for laboratory work. The mice were fed with sterilized feed for laboratory animals, which was made by Cheil Jedang Co.,Ltd, and supplied with purified water to drink.
During the acclimation period, mice, who were evaluated to be healthy, were weighed and divided into groups randomly. Individual identification of laboratory animals was performed by indumentum pigment display and tag display per breeding box.
Establishment of dose was carried out according to a result of preliminary test in such a manner that a maximum dose group for both male and female was set to 5000 mg/kg and azeotropy was set to 1.71. Medium-high, medium and medium-low dose groups were respectively set as follows and a control group was administrated with physiological saline for injection.
Before administration of testing substances, body weight of the laboratory animals was in the range of 24-28 g in case of male and in the range of 19-28 g in case of female, respectively. The laboratory animals were aged 6 weeks.
Preparation of the testing substances was dissolved in physiological saline before administration. Dose was calculated according to the body weight which was measured before administration and dispensed by oral administration to a mouse who was in abrosia for 18 hours before testing.
Observation of clinical symptom such as general change, toxic symptom and mortality was performed for all laboratory animals once an hour during 6 hours after administration on the very administration day, and once a day from the next day to 14th day of administration.
Administration group, who was administered with testing substances, and the control group were weighed on the administration day, first, third, seventh, tenth and fourteenth days from the administration at a predetermined time for all animals who were alive.
After finish of the test, all animals were slightly anesthetized with ether and bleeding-killed. Appearance and internal organs of the animals were examined with naked eye carefully. Animals, who died during the text, were examined in the same manner.

CCCCc1nc(C)c(CC(=S)N2CCOCC2)c(=O)n1Cc1ccc(-c2ccccc2-c2nn[nH]n2)cc1 [Compound 6]
< 3 mg/kg: ED50 [1]

CCCCc1nc(C)c(CC(=S)N(CC)CC)c(=O)n1Cc1ccc(-c2ccccc2-c2nnn[nH]2)cc1 [Compound 3, 2-n-butyl-5-diethylaminothiocarbonylmethyl-6-methyl-3-[[2'-(1H-tetrazol-5-yl)biphenyl-4-yl]methyl]-pyrimidine-4(3H)-one]
< 3 mg/kg: ED50 [1]

CCCCc1nc(C)c(CC(N)=S)c(=O)n1Cc1ccc(-c2ccccc2-c2nnn[nH]2)cc1 [Compound 1, 2-n-butyl-5-aminothiocarbonylmethyl-6-methyl-3-[[2'-(1H-tetrazol-5-yl)biphenyl-4-yl]methyl]-pyrimidine-4(3H)-one]
> 3 mg/kg: ED50 [1]

CCCCc1nc(C)c(CC(=S)N2CCCCC2)c(=O)n1Cc1ccc(-c2ccccc2-c2nnn[nH]2)cc1 [Compound 7, 2-n-butyl-5-piperidinothiocarbonylmethyl-6-methyl-3-[[2 '-(1H-tetrazol-5-yl)-biphenyl-4-yl]methyl]-pyrimidine-4(3H)-one]
< 3 mg/kg: ED50 [1]

CCCCc1nc(C)c(CC(=S)N2CCCCCCC2)c(=O)n1Cc1ccc(-c2ccccc2-c2nn[nH]n2)cc1 [Compound 4, 2-n-butyl-5-heptamethyleniminothiocarbonyl-methyl-6-methyl-3-[[2'-(1H-tetrazol-5-yl)biphenyl-4-yl]methyl]-pyrimidine-4(3H)-one]
3.1 mg/kg: ED50 [1]

CCCCc1nc(C)c(CC(=S)N2CCC2)c(=O)n1Cc1ccc(-c2ccccc2-c2nn[nH]n2)cc1 [Compound 9, 2-n-butyl-5-azetidinothiocarbonylmethyl-6-methyl-3-[[2'-(1H-tetrazol-5-yl)-biphenyl-4-yl]methyl]-pyrimidine-4 (3H)-one]
1.19 mg/kg: ED50 [1]

CCCCc1nc(C)c(CC(=S)N(C)C)c(=O)n1Cc1ccc(-c2ccccc2-c2nnn[nH]2)cc1 [Compound 2, 2-n-butyl-5-dimethylaminothiocarbonylmethyl-6-methyl-3-[[2'-(1H-tetrazol-5-yl)biphenyl-4-yl]methyl]-pyrimidine-4(3H)-one]
0/5: Mortality (death number/survival number) ([2]; female, 1000 mg/kg oral, day 0) | Mortality (death number/survival number) ([2]; female, 1000 mg/kg oral, day 1) | Mortality (death number/survival number) ([2]; female, 1000 mg/kg oral, day 2) | Mortality (death number/survival number) ([2]; female, 1000 mg/kg oral, day 3) | Mortality (death number/survival number) ([2]; female, 1000 mg/kg oral, day 7) | Mortality (death number/survival number) ([2]; female, 1000 mg/kg oral, day 14) | Mortality (death number/survival number) ([2]; female, 1710 mg/kg oral, day 0) | Mortality (death number/survival number) ([2]; female, 1710 mg/kg oral, day 1) | Mortality (death number/survival number) ([2]; female, 1710 mg/kg oral, day 2) | Mortality (death number/survival number) ([2]; female, 1710 mg/kg oral, day 3) | Mortality (death number/survival number) ([2]; female, 1710 mg/kg oral, day 7) | Mortality (death number/survival number) ([2]; female, 1710 mg/kg oral, day 14) | Mortality (death number/survival number) ([2]; female, 2924 mg/kg oral, day 0) | Mortality (death number/survival number) ([2]; female, 2924 mg/kg oral, day 1) | Mortality (death number/survival number) ([2]; female, 2924 mg/kg oral, day 2) | Mortality (death number/survival number) ([2]; female, 2924 mg/kg oral, day 3) | Mortality (death number/survival number) ([2]; female, 2924 mg/kg oral, day 7) | Mortality (death number/survival number) ([2]; female, 2924 mg/kg oral, day 14) | Final mortality (death number/total number) ([2]; female, 5000 mg/kg oral) | Mortality (death number/survival number) ([2]; female, 5000 mg/kg oral, day 0) | Mortality (death number/survival number) ([2]; female, 5000 mg/kg oral, day 1) | Mortality (death number/survival number) ([2]; female, 5000 mg/kg oral, day 2) | Mortality (death number/survival number) ([2]; female, 5000 mg/kg oral, day 3) | Mortality (death number/survival number) ([2]; female, 5000 mg/kg oral, day 7) | Mortality (death number/survival number) ([2]; female, 5000 mg/kg oral, day 14) | Mortality (death number/survival number) ([2]; male, 1000 mg/kg oral, day 0) | Mortality (death number/survival number) ([2]; male, 1000 mg/kg oral, day 1) | Mortality (death number/survival number) ([2]; male, 1000 mg/kg oral, day 2) | Mortality (death number/survival number) ([2]; male, 1000 mg/kg oral, day 3) | Mortality (death number/survival number) ([2]; male, 1000 mg/kg oral, day 7) | Mortality (death number/survival number) ([2]; male, 1000 mg/kg oral, day 14) | Mortality (death number/survival number) ([2]; male, 1710 mg/kg oral, day 0) | Mortality (death number/survival number) ([2]; male, 1710 mg/kg oral, day 1) | Mortality (death number/survival number) ([2]; male, 1710 mg/kg oral, day 2) | Mortality (death number/survival number) ([2]; male, 1710 mg/kg oral, day 3) | Mortality (death number/survival number) ([2]; male, 1710 mg/kg oral, day 7) | Mortality (death number/survival number) ([2]; male, 1710 mg/kg oral, day 14) | Mortality (death number/survival number) ([2]; male, 2924 mg/kg oral, day 0) | Mortality (death number/survival number) ([2]; male, 2924 mg/kg oral, day 1) | Mortality (death number/survival number) ([2]; male, 2924 mg/kg oral, day 2) | Mortality (death number/survival number) ([2]; male, 2924 mg/kg oral, day 3) | Mortality (death number/survival number) ([2]; male, 2924 mg/kg oral, day 7) | Mortality (death number/survival number) ([2]; male, 2924 mg/kg oral, day 14) | Final mortality (death number/total number) ([2]; male, 5000 mg/kg oral) | Mortality (death number/survival number) ([2]; male, 5000 mg/kg oral, day 0) | Mortality (death number/survival number) ([2]; male, 5000 mg/kg oral, day 1) | Mortality (death number/survival number) ([2]; male, 5000 mg/kg oral, day 2) | Mortality (death number/survival number) ([2]; male, 5000 mg/kg oral, day 3) | Mortality (death number/survival number) ([2]; male, 5000 mg/kg oral, day 7) | Mortality (death number/survival number) ([2]; male, 5000 mg/kg oral, day 14)
1.1 mg/kg: ED50 [1]
> 5000 mg/kg: LD50 ([2]; female mice) | LD50 ([2]; male mice)

CCCCc1nc(C)c(CC(=S)N2CCSCC2)c(=O)n1Cc1ccc(-c2ccccc2-c2nn[nH]n2)cc1 [Compound 5, 2-n-butyl-5-thiomorpholynothiocarbonylmethyl-6-methyl-3-[[2'-(1H-tetrazol-5-yl)-biphenyl-4-yl]methyl]-pyrimidine-4(3H)-one]
< 3 mg/kg: ED50 [1]
